Data on one molecule can be found in publication PMC5848469 (Combinatorial chemistry & high throughput screening, 2015).

SMILES strings stand for the structures.

In one assay the target is KIT (Homo sapiens, UniProt P10721). Description: Kinase active site-directed competition binding assay. Conditions: read-out: Percent Control at 10μM.
A further assay deals with KIT (D816V) (Homo sapiens, UniProt P10721, D816V). The description is as above. Conditions: read-out: Percent Control at 10μM.
In another assay the test system is hookworm tubulin. Conditions: cited from earlier work.
The next assay deals with mammalian tubulin. Conditions: fold less potency than on hookworm tubulin; cited from earlier work.

KIT, sequence (P10721 26-976): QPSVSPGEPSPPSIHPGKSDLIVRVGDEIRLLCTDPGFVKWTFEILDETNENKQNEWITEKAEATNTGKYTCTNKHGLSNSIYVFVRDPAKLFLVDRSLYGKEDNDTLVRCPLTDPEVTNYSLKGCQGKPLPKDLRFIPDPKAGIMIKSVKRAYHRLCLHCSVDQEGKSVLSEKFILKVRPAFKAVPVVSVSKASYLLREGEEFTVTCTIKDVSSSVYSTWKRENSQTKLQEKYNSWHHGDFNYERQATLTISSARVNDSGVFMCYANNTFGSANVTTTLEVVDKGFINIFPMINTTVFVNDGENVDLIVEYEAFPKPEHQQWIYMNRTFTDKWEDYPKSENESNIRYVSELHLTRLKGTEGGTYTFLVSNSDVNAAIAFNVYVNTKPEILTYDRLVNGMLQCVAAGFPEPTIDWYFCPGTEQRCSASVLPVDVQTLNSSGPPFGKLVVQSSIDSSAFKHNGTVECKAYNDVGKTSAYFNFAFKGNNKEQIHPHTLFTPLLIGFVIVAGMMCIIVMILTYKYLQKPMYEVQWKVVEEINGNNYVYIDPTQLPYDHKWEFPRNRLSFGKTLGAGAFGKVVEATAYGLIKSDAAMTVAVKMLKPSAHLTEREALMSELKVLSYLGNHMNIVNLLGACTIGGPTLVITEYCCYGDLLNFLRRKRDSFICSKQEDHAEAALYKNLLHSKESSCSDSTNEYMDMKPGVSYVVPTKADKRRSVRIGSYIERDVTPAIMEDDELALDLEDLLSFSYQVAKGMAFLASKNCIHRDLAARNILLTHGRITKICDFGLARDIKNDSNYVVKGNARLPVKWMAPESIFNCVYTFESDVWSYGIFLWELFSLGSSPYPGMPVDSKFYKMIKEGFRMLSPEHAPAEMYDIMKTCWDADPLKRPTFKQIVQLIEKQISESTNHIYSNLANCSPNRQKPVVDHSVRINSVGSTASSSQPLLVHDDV
KIT (D816V), sequence (P10721 26-976 D816V): as the sequence (P10721 26-976) above, with D791V counted along it

On to `COC(=O)Nc1nc2ccc(C(=O)c3ccccc3)cc2[nH]1` [MBZ, mebendazole], for which the results for the remaining binding at 10 µM on KIT and on KIT (D816V) were 7.4% and 33%, respectively. Besides, the “inhibition of hookworm tubulin (potency in words)” value in the assay with hookworm tubulin is “potent nanomolar inhibition”. For the same molecule, the “potency on mammalian tubulin relative to hookworm tubulin (fold less)” value in the assay on mammalian tubulin is 1000 x.
